According to patent publication US11746097B2, “LXR inverse agonists for treatment of cancer” (Saint Louis University, priority 2016, dated 2023):
pIC50: −log10 of the molar value.

Key:
human LXRα-LBD = target: T1, human LXRα-LBD (Homo sapiens, UniProt Q13133); experiment: Lantha Screen TR-FRET NR-cofactor peptide interaction assay; assay type: biochemical
T1 construct: Purified human LXRα-LBD (GST); purchased Life Technologies
T1 sequence (Q13133 209-447 limits assumed): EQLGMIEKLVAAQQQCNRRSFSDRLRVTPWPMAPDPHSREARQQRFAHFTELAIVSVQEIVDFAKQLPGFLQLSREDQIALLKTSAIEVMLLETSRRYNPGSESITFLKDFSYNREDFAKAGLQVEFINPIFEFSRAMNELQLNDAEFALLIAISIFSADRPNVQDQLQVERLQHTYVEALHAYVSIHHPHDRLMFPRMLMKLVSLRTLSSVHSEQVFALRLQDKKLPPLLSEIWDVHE
Experimental: Biochemical NR—Cofactor Peptide Interaction Assay (TR-FRET) Assay (Life Technologies kit). Purified human LXRα-LBD (GST), LXRβ-LBD (GST), fluoroscein (FL)-labeled peptides, terbium (TB)-labeled anti-GST tag antibody, and all buffers were purchased from Life Technologies. All LXR assays were conducted in 384-well black medium-binding polystyrene assay plates (Greiner Bio-One). Test compound stock solutions and subsequent serial dilutions were prepared at 100× the final concentration in DMSO, and then were diluted to the final assay concentration of 2× in assay buffer and dispensed into assay plates. LXR-LBDs were added to assay plates and then a mixture of FL-peptide/TB-anti-GST was added to each well containing either a test compound or DMSO control for final concentrations of 2.5 nM LXRα-LBD, 5 nM LXRβ-LBD, 10 nM TB-anti-GST, and 250 nM FL-peptide. Assay plates were protected from light and incubated with gentle shaking for 3.5 hours at room temperature. The TR-FRET ratio (520 nm/492 nm) of each assay well was measured using the Perkin Elmer EnVision plate reader. An excitation filter at 340 nm was used to excite the TB-anti-GST and emission filters 492 nm and 520 nm were used to detect terbium and fluorescein emission signals respectively. A delay of 100 μs followed by a 200 μs integration time was used to collect the time-resolved emission signals.
The assay is identical except we use His-tagged LXR (made in house) and TB-labeled anti-His antibody (Life Technologies). FL-labeled peptides (Life Technologies) are: • NCOR-ID1 NCOR-ID2 SMRT SRC1-2 SRC2-3 TRAP/DRIP

dendritic cell = experiment: Cultured dendritic cell chemokine expression (FIG. 1A); assay type: cell-based; conditions: cultured dendritic cells
[1] = tested on: lung and breast tumor bearing mice; experiment: Tumor specific immune response in tumor bearing mice (FIG. 1B); assay type: in vivo

SMILES	pIC50 (human LXRα-LBD)	other results
COC(=O)C1Cc2cc(-c3cccc(S(C)(=O)=O)c3)ccc2CN1S(=O)(=O)c1c(C)cc(C)cc1C (stereo not shown) [Compound 3, methyl 2-(mesitylsulfonyl)-6-(3-(methylsulfonyl)phenyl)-1,2,3,4-tetrahydroisoquinoline-3-carboxylate]	5.30	–
Cc1cc(C)c(S(=O)(=O)N2Cc3ccc(-c4cccc(S(C)(=O)=O)c4)cc3CC2C(=O)NCc2ccc(C#N)cc2)c(C)c1 (stereo not shown) [Compound 5, N-(4-cyanobenzyl)-2-(mesitylsulfonyl)-6-(3-(methylsulfonyl)phenyl)-1,2,3,4 tetrahydroisoquinoline-3-carboxamide]	5.08	–
Cc1cc(C)c(S(=O)(=O)N2Cc3ccc(-c4cccc(S(C)(=O)=O)c4)cc3CC2C(=O)NCc2cccc(C#N)c2)c(C)c1 (stereo not shown) [Compound 12]	7.70	–
Cc1cc(C)c(S(=O)(=O)N2Cc3ccc(-c4cccc(S(C)(=O)=O)c4)cc3CC2C(=O)NCCc2cccc(C#N)c2)c(C)c1 (stereo not shown) [Compound 14]	5.68	–
Cc1cc(C)c(S(=O)(=O)N2Cc3ccccc3CC2C(=O)NCCc2cccc(C#N)c2)c(C)c1 (stereo not shown) [Compound 38]	6.18	–
COc1ccc(-c2ccc3nc(NS(=O)(=O)c4c(C)cc(C)cc4C)ccc3c2)cc1 [Compound 104]	5.37	–
O=C(Nc1ccc2cc(Br)ccc2n1)c1cccc(Cl)c1 [Compound 113]	5.28	–
Cc1cc(C)c(S(=O)(=O)N(CCc2cccc(Br)c2)Cc2ccc(-c3cccc(S(C)(=O)=O)c3)cc2)c(C)c1 [SR9243]	–	inhibition of dendritic cell chemokine expression by LXR agonists and tumor specific LXR ligands (dendritic cell): disrupted; cytotoxic T-cell activity [1]: induces; dendritic cell activity [1]: induces
